# Experimental data: paper doi:10.1101/2024.08.13.607785v1 (biorxiv, 2024)
# Legend:
# Design in all cases: species or system mixed lysate of K562, MV4-11, THP-1, NCI-H1155
# [1] = molecular target: Serine/threonine-protein kinase LMTK2 ; LMTK2 ; Q8IWU2 (Homo sapiens, UniProt Q8IWU2); conditions: DIA-MS residual binding; binder
# [2] = molecular target: Tyrosine-protein kinase FRK ; FRK ; P42685 (Homo sapiens, UniProt P42685); conditions: DIA-MS residual binding; binder
# [3] = molecular target: Phosphatidylinositol 4-kinase alpha ; PI4KA ; P42356 (Homo sapiens, UniProt P42356); conditions: DIA-MS residual binding; binder
# [4] = molecular target: Tyrosine-protein kinase Fyn ; FYN-2 ; P06241 (Homo sapiens, UniProt P06241); conditions: DIA-MS residual binding; binder
# [5] = molecular target: Peripheral plasma membrane protein CASK ; CASK ; O14936 (Homo sapiens, UniProt O14936); conditions: DIA-MS residual binding; binder
# [6] = molecular target: Mitogen-activated protein kinase kinase kinase 4 ; MAP3K4 ; Q9Y6R4 (Homo sapiens, UniProt Q9Y6R4); conditions: binder
# [7] = molecular target: T1, Tyrosine-protein kinase Tec ; TEC ; P42680 (Homo sapiens, UniProt P42680); conditions: binder
# T1 sequence (P42680 1-631): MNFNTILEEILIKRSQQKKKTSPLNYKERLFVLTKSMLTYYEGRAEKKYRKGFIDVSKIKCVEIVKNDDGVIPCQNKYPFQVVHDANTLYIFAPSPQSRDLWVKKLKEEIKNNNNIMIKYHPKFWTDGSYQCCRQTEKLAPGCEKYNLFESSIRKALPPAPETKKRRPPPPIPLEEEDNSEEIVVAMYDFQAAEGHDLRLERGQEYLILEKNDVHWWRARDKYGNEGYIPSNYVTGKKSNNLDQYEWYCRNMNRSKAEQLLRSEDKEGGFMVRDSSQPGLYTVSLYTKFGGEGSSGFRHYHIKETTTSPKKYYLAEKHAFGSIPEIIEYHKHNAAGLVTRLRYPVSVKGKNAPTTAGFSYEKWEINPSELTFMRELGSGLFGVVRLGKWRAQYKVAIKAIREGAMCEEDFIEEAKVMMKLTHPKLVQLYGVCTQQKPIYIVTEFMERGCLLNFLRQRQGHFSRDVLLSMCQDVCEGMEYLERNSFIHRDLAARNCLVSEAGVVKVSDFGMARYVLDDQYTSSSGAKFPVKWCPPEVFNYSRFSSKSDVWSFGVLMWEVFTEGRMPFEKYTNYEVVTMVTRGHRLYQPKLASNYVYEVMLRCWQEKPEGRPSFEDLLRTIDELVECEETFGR
# [8] = molecular target: Mitogen-activated protein kinase 14 ; MAPK14-2 ; Q16539-2 (Homo sapiens, UniProt Q16539); conditions: DIA-MS residual binding; binder
# [9] = molecular target: Tyrosine-protein kinase Fyn ; FYN ; P06241 (Homo sapiens, UniProt P06241); conditions: DIA-MS residual binding; binder
# [10] = molecular target: T2, Dual specificity mitogen-activated protein kinase kinase 3 ; MAP2K3 ; P46734 (Homo sapiens, UniProt P46734); conditions: DIA-MS residual binding; binder
# T2 sequence (P46734 1-347): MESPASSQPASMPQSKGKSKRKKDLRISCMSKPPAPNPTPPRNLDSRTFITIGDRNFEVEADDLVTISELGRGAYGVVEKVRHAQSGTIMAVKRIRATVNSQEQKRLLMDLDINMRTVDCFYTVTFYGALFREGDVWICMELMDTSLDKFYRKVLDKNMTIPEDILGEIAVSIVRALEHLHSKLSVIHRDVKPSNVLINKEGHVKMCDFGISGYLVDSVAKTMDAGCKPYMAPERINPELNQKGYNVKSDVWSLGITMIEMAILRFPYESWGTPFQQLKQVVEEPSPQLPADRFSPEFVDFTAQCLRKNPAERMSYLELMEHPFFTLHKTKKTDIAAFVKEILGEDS
# [11] = molecular target: Tyrosine-protein kinase Lyn ; LYN ; P07948 (Homo sapiens, UniProt P07948); conditions: DIA-MS residual binding; binder
# Sequence of Tyrosine-protein kinase Lyn ; LYN ; P07948 (P07948 whole entry): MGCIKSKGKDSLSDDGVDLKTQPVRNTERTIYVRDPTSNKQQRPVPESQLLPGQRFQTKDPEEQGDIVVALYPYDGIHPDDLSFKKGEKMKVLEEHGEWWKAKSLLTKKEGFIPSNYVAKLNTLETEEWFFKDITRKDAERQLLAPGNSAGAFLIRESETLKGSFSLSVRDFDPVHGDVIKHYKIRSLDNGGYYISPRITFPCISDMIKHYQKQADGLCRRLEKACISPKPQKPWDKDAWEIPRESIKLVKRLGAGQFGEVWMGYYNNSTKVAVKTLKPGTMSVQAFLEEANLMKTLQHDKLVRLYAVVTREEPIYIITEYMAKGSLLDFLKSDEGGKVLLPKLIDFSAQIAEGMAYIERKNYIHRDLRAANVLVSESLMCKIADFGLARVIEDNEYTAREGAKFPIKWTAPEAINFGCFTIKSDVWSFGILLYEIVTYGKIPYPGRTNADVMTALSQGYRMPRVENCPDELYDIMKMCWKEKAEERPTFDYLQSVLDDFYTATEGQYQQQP
# Sequence of Mitogen-activated protein kinase 14 ; MAPK14-2 ; Q16539-2 (Q16539 whole entry): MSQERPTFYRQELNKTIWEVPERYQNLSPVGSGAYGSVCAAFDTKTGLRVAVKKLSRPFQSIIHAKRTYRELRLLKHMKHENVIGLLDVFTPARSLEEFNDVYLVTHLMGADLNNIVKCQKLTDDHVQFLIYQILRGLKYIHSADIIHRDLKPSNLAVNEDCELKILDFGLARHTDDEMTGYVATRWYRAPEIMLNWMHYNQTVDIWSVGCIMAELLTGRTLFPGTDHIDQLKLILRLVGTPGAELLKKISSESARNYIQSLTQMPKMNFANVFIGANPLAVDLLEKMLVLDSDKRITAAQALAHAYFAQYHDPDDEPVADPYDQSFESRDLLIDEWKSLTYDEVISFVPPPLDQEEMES
# Sequence of Tyrosine-protein kinase FRK ; FRK ; P42685 (P42685 whole entry): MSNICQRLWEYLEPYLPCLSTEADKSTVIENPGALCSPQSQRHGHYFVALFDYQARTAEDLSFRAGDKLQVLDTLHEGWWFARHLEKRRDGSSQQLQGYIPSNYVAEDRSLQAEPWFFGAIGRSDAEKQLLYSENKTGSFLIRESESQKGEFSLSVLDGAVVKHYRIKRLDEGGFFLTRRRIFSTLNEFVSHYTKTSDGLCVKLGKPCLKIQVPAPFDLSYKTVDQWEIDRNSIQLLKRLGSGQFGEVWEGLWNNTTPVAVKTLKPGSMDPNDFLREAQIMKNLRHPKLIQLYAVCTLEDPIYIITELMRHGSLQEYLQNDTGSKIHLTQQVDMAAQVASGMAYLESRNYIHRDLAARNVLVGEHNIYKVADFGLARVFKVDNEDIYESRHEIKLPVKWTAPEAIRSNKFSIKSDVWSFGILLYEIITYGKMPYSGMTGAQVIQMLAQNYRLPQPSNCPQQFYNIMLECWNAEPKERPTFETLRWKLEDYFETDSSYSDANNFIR
# Sequence of Phosphatidylinositol 4-kinase alpha ; PI4KA ; P42356 (P42356 whole entry): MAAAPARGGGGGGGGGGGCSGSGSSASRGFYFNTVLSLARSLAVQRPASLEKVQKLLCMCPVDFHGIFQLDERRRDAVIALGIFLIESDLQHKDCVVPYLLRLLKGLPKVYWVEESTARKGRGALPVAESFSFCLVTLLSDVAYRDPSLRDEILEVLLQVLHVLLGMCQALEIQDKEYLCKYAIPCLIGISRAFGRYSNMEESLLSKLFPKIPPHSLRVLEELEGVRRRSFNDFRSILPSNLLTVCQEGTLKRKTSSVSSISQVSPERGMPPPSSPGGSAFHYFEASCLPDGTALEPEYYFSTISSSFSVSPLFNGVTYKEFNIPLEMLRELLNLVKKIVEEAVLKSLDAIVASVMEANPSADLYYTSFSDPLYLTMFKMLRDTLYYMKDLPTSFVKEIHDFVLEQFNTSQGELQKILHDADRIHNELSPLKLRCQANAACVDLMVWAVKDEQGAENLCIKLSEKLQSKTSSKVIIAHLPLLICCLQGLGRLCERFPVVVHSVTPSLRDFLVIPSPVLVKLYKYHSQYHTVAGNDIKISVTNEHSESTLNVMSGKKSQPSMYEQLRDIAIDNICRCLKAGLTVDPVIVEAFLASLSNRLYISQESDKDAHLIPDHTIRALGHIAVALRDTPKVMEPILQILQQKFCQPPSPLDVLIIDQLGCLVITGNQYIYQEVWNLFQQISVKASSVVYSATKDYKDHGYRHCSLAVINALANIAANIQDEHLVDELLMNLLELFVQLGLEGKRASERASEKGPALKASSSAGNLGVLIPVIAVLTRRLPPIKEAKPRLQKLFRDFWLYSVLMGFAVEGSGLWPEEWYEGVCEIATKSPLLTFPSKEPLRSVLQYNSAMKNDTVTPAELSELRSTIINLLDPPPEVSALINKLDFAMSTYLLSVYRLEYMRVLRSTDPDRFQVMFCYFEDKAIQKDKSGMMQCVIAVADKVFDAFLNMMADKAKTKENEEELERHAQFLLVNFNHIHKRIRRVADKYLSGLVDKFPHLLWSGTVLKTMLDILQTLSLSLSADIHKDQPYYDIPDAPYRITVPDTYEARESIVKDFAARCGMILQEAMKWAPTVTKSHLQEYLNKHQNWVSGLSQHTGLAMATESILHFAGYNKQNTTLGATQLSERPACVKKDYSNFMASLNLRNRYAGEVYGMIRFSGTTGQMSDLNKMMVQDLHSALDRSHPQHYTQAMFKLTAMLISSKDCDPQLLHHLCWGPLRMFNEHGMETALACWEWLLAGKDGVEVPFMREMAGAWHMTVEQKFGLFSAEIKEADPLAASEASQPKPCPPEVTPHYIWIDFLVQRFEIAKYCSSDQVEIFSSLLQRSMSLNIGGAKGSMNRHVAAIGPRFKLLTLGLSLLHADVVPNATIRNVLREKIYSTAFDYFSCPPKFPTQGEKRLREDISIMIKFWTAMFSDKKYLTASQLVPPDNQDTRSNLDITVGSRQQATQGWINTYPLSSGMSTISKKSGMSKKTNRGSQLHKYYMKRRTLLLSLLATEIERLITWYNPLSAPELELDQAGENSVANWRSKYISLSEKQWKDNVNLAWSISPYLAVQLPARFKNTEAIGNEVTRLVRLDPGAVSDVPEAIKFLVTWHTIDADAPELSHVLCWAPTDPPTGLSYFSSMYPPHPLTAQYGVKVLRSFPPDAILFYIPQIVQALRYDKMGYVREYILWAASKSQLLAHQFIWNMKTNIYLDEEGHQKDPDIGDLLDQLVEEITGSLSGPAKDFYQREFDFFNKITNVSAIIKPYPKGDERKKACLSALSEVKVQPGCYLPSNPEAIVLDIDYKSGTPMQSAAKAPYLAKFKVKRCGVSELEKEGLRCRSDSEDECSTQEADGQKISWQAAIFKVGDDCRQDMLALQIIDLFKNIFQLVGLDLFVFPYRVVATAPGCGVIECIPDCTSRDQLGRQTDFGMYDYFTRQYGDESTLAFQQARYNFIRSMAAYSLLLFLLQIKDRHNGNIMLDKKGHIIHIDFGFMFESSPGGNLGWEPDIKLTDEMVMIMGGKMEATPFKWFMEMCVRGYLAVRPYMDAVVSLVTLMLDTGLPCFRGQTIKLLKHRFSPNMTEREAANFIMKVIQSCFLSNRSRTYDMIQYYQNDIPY
# Sequence of Mitogen-activated protein kinase kinase kinase 4 ; MAP3K4 ; Q9Y6R4 (Q9Y6R4 whole entry): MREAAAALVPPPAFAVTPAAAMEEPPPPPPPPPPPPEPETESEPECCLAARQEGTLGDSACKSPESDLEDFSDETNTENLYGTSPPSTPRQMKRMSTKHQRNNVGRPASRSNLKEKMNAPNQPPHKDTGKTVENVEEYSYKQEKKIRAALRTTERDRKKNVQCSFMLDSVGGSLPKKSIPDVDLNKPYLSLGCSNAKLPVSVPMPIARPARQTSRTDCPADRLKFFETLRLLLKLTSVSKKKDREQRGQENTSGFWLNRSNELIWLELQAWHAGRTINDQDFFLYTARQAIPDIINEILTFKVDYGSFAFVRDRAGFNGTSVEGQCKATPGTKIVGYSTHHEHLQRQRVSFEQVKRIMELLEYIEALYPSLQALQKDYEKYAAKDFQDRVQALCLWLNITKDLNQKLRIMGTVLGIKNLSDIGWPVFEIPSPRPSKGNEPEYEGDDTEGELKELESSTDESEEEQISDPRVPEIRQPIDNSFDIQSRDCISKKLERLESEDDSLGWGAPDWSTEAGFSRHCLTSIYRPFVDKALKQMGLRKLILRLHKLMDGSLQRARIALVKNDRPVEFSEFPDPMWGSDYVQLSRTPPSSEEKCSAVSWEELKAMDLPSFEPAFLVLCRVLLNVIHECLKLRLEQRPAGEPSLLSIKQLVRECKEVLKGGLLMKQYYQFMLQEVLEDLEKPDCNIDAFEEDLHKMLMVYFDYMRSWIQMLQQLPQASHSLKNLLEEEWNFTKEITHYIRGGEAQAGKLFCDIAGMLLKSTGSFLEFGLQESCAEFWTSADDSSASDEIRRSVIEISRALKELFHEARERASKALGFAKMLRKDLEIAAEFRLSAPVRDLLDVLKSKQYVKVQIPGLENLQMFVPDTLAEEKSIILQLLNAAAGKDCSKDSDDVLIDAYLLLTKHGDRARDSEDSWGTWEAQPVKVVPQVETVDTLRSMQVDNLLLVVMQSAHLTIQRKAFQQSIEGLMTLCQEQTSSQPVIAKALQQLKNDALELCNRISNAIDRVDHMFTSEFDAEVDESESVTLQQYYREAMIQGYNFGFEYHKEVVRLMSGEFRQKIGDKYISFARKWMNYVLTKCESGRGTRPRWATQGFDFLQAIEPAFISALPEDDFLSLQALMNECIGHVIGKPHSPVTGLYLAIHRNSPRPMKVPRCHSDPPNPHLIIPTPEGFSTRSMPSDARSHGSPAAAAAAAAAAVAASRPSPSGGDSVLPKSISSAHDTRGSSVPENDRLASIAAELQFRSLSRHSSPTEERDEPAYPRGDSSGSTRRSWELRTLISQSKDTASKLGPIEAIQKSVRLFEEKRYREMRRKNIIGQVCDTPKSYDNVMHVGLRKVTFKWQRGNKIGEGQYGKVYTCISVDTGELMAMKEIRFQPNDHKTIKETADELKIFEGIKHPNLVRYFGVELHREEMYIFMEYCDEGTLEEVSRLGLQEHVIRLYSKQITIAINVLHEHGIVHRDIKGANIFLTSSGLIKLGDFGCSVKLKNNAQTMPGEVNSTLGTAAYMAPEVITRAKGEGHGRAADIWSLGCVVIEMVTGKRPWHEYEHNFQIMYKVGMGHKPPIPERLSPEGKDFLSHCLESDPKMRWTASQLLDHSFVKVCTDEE
compound,measurement,setting,value
Cc1nc(Nc2ncc(C(=O)Nc3c(C)cccc3Cl)s2)cc(N2CCN(CCO)CC2)n1 [dasatinib],DIA-MS / % Intensity (30 µM/DMSO),[1],9.818%
same,DIA-MS / % Intensity (30 µM/DMSO),[2],2.249%
same,DIA-MS / % Intensity (30 µM/DMSO),[3],31.23%
same,DIA-MS / % Intensity (30 µM/DMSO),[4],2.543%
same,DIA-MS / % Intensity (30 µM/DMSO),[5],21.6%
same,DIA-MS / % Intensity (30 µM/DMSO),[6],31.25%
same,DIA-MS / % Intensity (30 µM/DMSO),[7],7.109%
same,DIA-MS / % Intensity (30 µM/DMSO),[8],35.75%
same,DIA-MS / % Intensity (30 µM/DMSO),[9],1.145%
same,DIA-MS / % Intensity (30 µM/DMSO),[10],55.82%
same,DIA-MS / % Intensity (30 µM/DMSO),[11],11.5%
